This experiment concerns the target rhGCPII (extracellular part of human GCPII, amino acids 44–750) (Homo sapiens, UniProt Q04609). Description: Fluorescence polarization. The format is binding. On the technique in general: Polarisation of emitted light reports the rotation of a fluorescent probe.

Chain of rhGCPII (extracellular part of human GCPII, amino acids 44–750) (Q04609 44-750): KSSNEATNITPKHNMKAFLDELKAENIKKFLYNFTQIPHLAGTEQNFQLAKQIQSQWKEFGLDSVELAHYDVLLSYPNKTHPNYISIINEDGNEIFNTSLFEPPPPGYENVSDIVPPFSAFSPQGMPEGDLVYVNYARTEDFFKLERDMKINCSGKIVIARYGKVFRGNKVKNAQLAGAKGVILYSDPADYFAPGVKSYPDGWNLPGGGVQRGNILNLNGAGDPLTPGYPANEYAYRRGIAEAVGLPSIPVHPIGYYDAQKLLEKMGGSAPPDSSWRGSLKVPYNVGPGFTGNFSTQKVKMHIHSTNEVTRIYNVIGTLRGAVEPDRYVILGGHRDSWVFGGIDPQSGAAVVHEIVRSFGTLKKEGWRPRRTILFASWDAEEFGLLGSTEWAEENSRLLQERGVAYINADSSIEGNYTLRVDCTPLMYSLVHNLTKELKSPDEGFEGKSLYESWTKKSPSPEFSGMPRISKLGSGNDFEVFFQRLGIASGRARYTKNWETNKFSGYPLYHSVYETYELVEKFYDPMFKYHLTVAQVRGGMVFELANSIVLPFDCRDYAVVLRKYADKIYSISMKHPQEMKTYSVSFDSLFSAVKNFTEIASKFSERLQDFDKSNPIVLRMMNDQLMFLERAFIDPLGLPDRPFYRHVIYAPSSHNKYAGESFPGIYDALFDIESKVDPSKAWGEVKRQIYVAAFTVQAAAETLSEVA

A word on the IC50: it is the concentration that inhibits the measured activity by half. Consider `N[C@@H](CCC(=O)O)C(=O)O` [glutamic acid], for which the IC50 is 870 µM.
Then `N[C@@H](Cn1oc(=O)[nH]c1=O)C(=O)O` [quisqualate], with 16.7 µM.
